These results are taken from patent publication US11382328B2, “Rapid drug discovery methods for pathogen inactivation” (priority 2019, dated 2022).

The assay concerns E. coli strain W3110. The assay can be described thus: Synergy assays: Biolog chemical sensitivity panels with Group IB metal, coefficient of drug interaction (CDI) from relative growth. It is filed as cell-based. To be noted: for CDI (coefficient of drug interaction), copper mixed with biocide: Copper (mM) section; for CDI (coefficient of drug interaction), gold + biocide: Gold (μM).

Setting [1] is: Copper (mM), 1st of 3 copper concentrations (head line not shown), biocide concentration 4 of 4, E. coli.
The mark [2] stands for this setting: Copper (mM), 2nd of 3 copper concentrations (head line not shown), biocide concentration 3 of 4, E. coli.
[3] abbreviates: Copper (mM), 2nd of 3 copper concentrations (head line not shown), biocide concentration 4 of 4, E. coli.
Where [4] appears, read: Copper (mM), 3rd of 3 copper concentrations (head line not shown), biocide concentration 4 of 4, E. coli.
Where [5] appears, read: Gold section of Table 5, first of three gold concentrations (μM, value not given), biocide concentration 1 of 4.
Where [6] appears, read: Gold section of Table 5, first of three gold concentrations (μM, value not given), biocide concentration 2 of 4.
Setting [7] is: Gold section of Table 5, first of three gold concentrations (μM, value not given), biocide concentration 3 of 4.
Where [8] appears, read: Gold section of Table 5, first of three gold concentrations (μM, value not given), biocide concentration 4 of 4.
[9] abbreviates: Gold section of Table 5, second of three gold concentrations (μM, value not given), biocide concentration 1 of 4.
The mark [10] stands for this setting: Gold section of Table 5, second of three gold concentrations (μM, value not given), biocide concentration 2 of 4.
Setting [11] is: Gold section of Table 5, second of three gold concentrations (μM, value not given), biocide concentration 3 of 4.
[12] abbreviates: Gold section of Table 5, second of three gold concentrations (μM, value not given), biocide concentration 4 of 4.
Setting [13] is: Gold section of Table 5, third of three gold concentrations (μM, value not given), biocide concentration 1 of 4.
Setting [14] is: Gold section of Table 5, third of three gold concentrations (μM, value not given), biocide concentration 2 of 4.
[15] abbreviates: Gold section of Table 5, third of three gold concentrations (μM, value not given), biocide concentration 3 of 4.
Setting [16] is: Gold section of Table 5, third of three gold concentrations (μM, value not given), biocide concentration 4 of 4.
[17] abbreviates: Silver 0.5 μM, biocide concentration 1 of 4.
Setting [18] is: Silver 0.5 μM, biocide concentration 2 of 4.
Setting [19] is: Silver 0.5 μM, biocide concentration 3 of 4.
The mark [20] stands for this setting: Silver 0.5 μM, biocide concentration 4 of 4.
Where [21] appears, read: Silver 1.0 μM, biocide concentration 1 of 4.
Setting [22] is: Silver 1.0 μM, biocide concentration 2 of 4.
Setting [23] is: Silver 1.0 μM, biocide concentration 3 of 4.
Setting [24] is: Silver 1.0 μM, biocide concentration 4 of 4.
[25] abbreviates: Silver 5.0 μM, biocide concentration 1 of 4.
[26] abbreviates: Silver 5.0 μM, biocide concentration 2 of 4.
The mark [27] stands for this setting: Silver 5.0 μM, biocide concentration 3 of 4.
[28] abbreviates: Silver 5.0 μM, biocide concentration 4 of 4.
[29] abbreviates: Silver 0.5 μM, 4th of four biocide concentrations, E. coli.
The mark [30] stands for this setting: Silver 1.0 μM, 4th of four biocide concentrations, E. coli.
Setting [31] is: Silver 5.0 μM, 4th of four biocide concentrations, E. coli.
Where [32] appears, read: 2nd of 3 copper concentrations (value not shown), 2nd of four biocide concentrations.
The mark [33] stands for this setting: 2nd of 3 copper concentrations (value not shown), 3rd of four biocide concentrations.
[34] abbreviates: 2nd of 3 copper concentrations (value not shown), 4th of four biocide concentrations.

Regarding `CN(CC[C@H](N)CC(=O)N[C@H]1C=C[C@H](n2ccc(N)nc2=O)O[C@@H]1C(=O)O)C(=N)N` [blasticidin S], the “CDI (coefficient of drug interaction)” value is given as 1.05 (Copper (mM), 1st of 3 copper concentrations (head line not shown), biocide concentration 1 of 4, E. coli); 1.14 (Copper (mM), 1st of 3 copper concentrations (head line not shown), biocide concentration 2 of 4, E. coli); 0.95 (Copper (mM), 1st of 3 copper concentrations (head line not shown), biocide concentration 3 of 4, E. coli); “Tox” under setting [1]; 0.90 (Copper (mM), 2nd of 3 copper concentrations (head line not shown), biocide concentration 1 of 4, E. coli); 0.96 (Copper (mM), 2nd of 3 copper concentrations (head line not shown), biocide concentration 2 of 4, E. coli). Besides, the “CDI (coefficient of drug interaction)” value under setting [2] was “Tox”; the “CDI (coefficient of drug interaction)” value under setting [3] is reported as “Tox”; the “CDI (coefficient of drug interaction)” value (Copper (mM), 3rd of 3 copper concentrations (head line not shown), biocide concentration 1 of 4, E. coli) was found to be 0.71; the “CDI (coefficient of drug interaction)” value (Copper (mM), 3rd of 3 copper concentrations (head line not shown), biocide concentration 2 of 4, E. coli) turned out to be 0.65; the “CDI (coefficient of drug interaction)” value (Copper (mM), 3rd of 3 copper concentrations (head line not shown), biocide concentration 3 of 4, E. coli) is 0.49; the “CDI (coefficient of drug interaction)” value under setting [4] is “Tox”. Also, the “CDI (coefficient of drug interaction)” value by setting is: under setting [5], 1.05; under setting [6], 0.95; under setting [7], 0.97; under setting [8], “Tox”; under setting [9], 1.06; under setting [10], 1.08. Also, the “CDI (coefficient of drug interaction)” value under setting [11] was determined as 1.11; the “CDI (coefficient of drug interaction)” value under setting [12] is on record as “Tox”; the “CDI (coefficient of drug interaction)” value under setting [13] was 1.09; the “CDI (coefficient of drug interaction)” value under setting [14] is listed as 1.06; the “CDI (coefficient of drug interaction)” value under setting [15] turned out to be 1.11; the “CDI (coefficient of drug interaction)” value under setting [16] is “Tox”. In addition, the CDI by setting is: under setting [17], 1.04; under setting [18], 0.90; under setting [19], 0.92; under setting [20], “Tox”; under setting [21], 1.01; under setting [22], 1.02. For the same molecule, the CDI result runs as follows: under setting [23], “Tox”; under setting [24], “Tox”; under setting [25], 1.52; under setting [26], 1.40; under setting [27], “Tox”; under setting [28], “Tox”.
Consider `O=C1C2CC=CCC2C(=O)N1SC(Cl)(Cl)Cl` (stereo not shown) [captan], for which the “CDI (coefficient of drug interaction), silver + biocide” value (“CDI … silver + biocide” below) was “Tox” under setting [29], “Tox” under setting [30] and “Tox” under setting [31].
Take `Cc1cc(O)cc(C)c1Cl` [chloroxylenol]: the “CDI (coefficient of drug interaction), copper mixed with biocide” value (from here on “CDI … with biocide”) runs as follows: under setting [32], “Tox”; under setting [33], “Tox”; under setting [34], “Tox”. Moreover, the “CDI (coefficient of drug interaction)” value is, setting by setting: under setting [7], “Tox”; under setting [8], “Tox”; under setting [11], “Tox”; under setting [12], “Tox”; under setting [15], “Tox”; under setting [16], “Tox”. Also, the “CDI … silver + biocide” value by setting is: (Silver 0.5 μM, 3rd of four biocide concentrations, E. coli) “Tox”; under setting [29], “Tox”; (Silver 1.0 μM, 2nd of four biocide concentrations, E. coli) “Tox”; (Silver 1.0 μM, 3rd of four biocide concentrations, E. coli) “Tox”; under setting [30], “Tox”; (Silver 5.0 μM, 2nd of four biocide concentrations, E. coli) “Tox”. Moreover, the “CDI … silver + biocide” value (Silver 5.0 μM, 3rd of four biocide concentrations, E. coli) was “Tox” and the “CDI … silver + biocide” value under setting [31] is listed as “Tox”.
`Cc1onc(-c2ccccc2Cl)c1C(=O)N[C@@H]1C(=O)N2[C@@H]1SC(C)(C)[C@@H]2C(=O)O` [cloxacillin]: the “CDI (coefficient of drug interaction)” value is, setting by setting: under setting [1], “Tox”; under setting [2], “Tox”; under setting [3], “Tox”; under setting [4], “Tox”. For the same molecule, the “CDI (coefficient of drug interaction), gold + biocide” value is listed as “Tox” (first of 3 gold concentrations, biocide concentration 4 of 4); “Tox” (second of 3 gold concentrations, biocide concentration 4 of 4); “Tox” (third of 3 gold concentrations, biocide concentration 4 of 4). Moreover, the CDI result was “Tox” under setting [19]; “Tox” under setting [20]; “Tox” under setting [23]; “Tox” under setting [24]; “Tox” under setting [27]; “Tox” under setting [28].
For `O=c1ccc2ccccc2o1` [coumarin], the “CDI (coefficient of drug interaction)” value (Gold 50 μM, biocide concentration 4 of 4, E. coli) was “Tox”.
Take `CN(C)C(=O)/N=N/C(=O)N(C)C` [diamide]: the “CDI … with biocide” value (1st of 3 copper concentrations (value not shown), 1st of four biocide concentrations) turned out to be 1.02; the “CDI … with biocide” value (1st of 3 copper concentrations (value not shown), 2nd of four biocide concentrations) came out at 0.98; the “CDI … with biocide” value (1st of 3 copper concentrations (value not shown), 3rd of four biocide concentrations) was 0.96; the “CDI … with biocide” value (1st of 3 copper concentrations (value not shown), 4th of four biocide concentrations) was 0.99; the “CDI … with biocide” value (2nd of 3 copper concentrations (value not shown), 1st of four biocide concentrations) turned out to be 0.78; the “CDI … with biocide” value under setting [32] worked out at 0.72. Also, the “CDI … with biocide” value was “Tox” under setting [33]; “Tox” under setting [34]; 0.52 (3rd of 3 copper concentrations (value not shown), 1st of four biocide concentrations); 0.51 (3rd of 3 copper concentrations (value not shown), 2nd of four biocide concentrations); 0.52 (3rd of 3 copper concentrations (value not shown), 3rd of four biocide concentrations); 0.56 (3rd of 3 copper concentrations (value not shown), 4th of four biocide concentrations). The “CDI (coefficient of drug interaction)” value by setting is: under setting [5], 0.99; under setting [6], 0.86; under setting [7], “Tox”; under setting [8], “Tox”; under setting [9], 0.98; under setting [10], 0.89. In addition, the “CDI (coefficient of drug interaction)” value was “Tox” under setting [11]; “Tox” under setting [12]; 0.98 under setting [13]; 0.93 under setting [14]; “Tox” under setting [15]; “Tox” under setting [16]. The CDI under setting [17] worked out at 1.19; the CDI under setting [18] was 1.07; the CDI result under setting [19] is recorded as “Tox”; the CDI entry under setting [20] was “Tox”; the CDI under setting [21] turned out to be 1.01; the CDI under setting [22] came to 0.90. In addition, the CDI result runs as follows: under setting [23], “Tox”; under setting [24], “Tox”; under setting [25], 0.97; under setting [26], 0.40; under setting [27], “Tox”; under setting [28], “Tox”.
